# Reference: patent publication US20250243174A1, “ANTITUMORAL COMPOUNDS” (PHARMA MAR, S.A., priority 2021, published 2025)
# Where two headings read alike, the source gives them in different places.
# Columns and labels:
# [1] = test system: PSN-1; experiment: SRB colorimetric cytotoxicity assay, PSN-1; format: cell-based; conditions: Homo sapiens, read-out: GI50 (M) PSN-1
# Source text: (§1) The aim of this assay is to evaluate the in vitro cytostatic (ability to delay or arrest tumor cell growth) or cytotoxic (ability to kill tumor cells) activity of the samples being tested.
# (§2) A colorimetric assay, using sulforhodamine B (SRB) reaction has been adapted to provide a quantitative measurement of cell growth and viability (using the technique developed by Skehan et al., J. Natl. Cancer Inst. 1990 and following the protocol detailed in V. Vichai and K. Kirtikara (2006) Nature Protoc. 1, 1112-1116.)
# (§3) This form of assay employs 96-well cell culture microplates. All the cell lines used in this study were obtained from the American Type Culture Collection (ATCC), unless otherwise indicated, and derive from different types of human cancer.
# (§4) Cells were maintained in Dulbecco's Modified Eagle Medium (DMEM) (for A549, HT-29 and MDA-MB-231) or RPMI (for PSN-1) supplemented with 10% Fetal Bovine Serum (FBS), 2 mM L-glutamine, 100 U/mL penicillin and 100 U/mL streptomycin at 37° C., 5% CO2 and 98% humidity. For the experiments, cells were harvested from subconfluent cultures using trypsinization and resuspended in fresh medium before counting and plating.
# (§5) Cells were seeded in 96 well microtiter plates, at 5×10^3 cells per well in aliquots of 150 μL, and allowed to attach to the plate surface for 18 hours (overnight) in drug free medium. After that, one control (untreated) plate of each cell line was fixed (as described below) and used for time zero reference value. Culture plates were then treated with test compounds (50 μL aliquots of 4× concentrated compound stock solutions made in complete culture medium) using ten serial dilutions (concentrations ranging from […]) and triplicate cultures (final concentration of DMSO being 1%). After 72 hours treatment, the antitumor effect was measured by using the SRB methodology: Briefly, cells were washed twice with PBS, fixed for 15 min in 1% glutaraldehyde solution at room temperature, rinsed twice in PBS, and stained in 0.4% SRB solution for 30 min at room temperature. Cells were then rinsed several times with 1% acetic acid solution and air-dried at room temperature. SRB was then extracted in 10 mM trizma base solution and the absorbance measured in an automated spectrophotometric plate reader at 490 nm. Effects on cell growth and survival were estimated by applying the NCI algorithm (Boyd M R and Paull K D. Drug Dev. Res. 1995, 34, 91-104).
# (§6) Using the mean±SD of triplicates, a dose-response curve was automatically generated using nonlinear regression analysis to a 4-parameter logistic curve. Three reference parameters were calculated (NCI algorithm) by automatic interpolation: GI50=compound concentration that produces […] cell growth inhibition, as compared to control cultures.
# [2] = test system: A549; experiment: SRB colorimetric cytotoxicity assay, A549; format: cell-based; conditions: Homo sapiens, read-out: GI50 (M) A549
# Source text: as §1, §2, §3, §4, §5, §6
# [3] = test system: HGC-27 xenografts; experiment: Example 6, gastric xenograft model HGC-27; format: in vivo; conditions: for mean body weight reduction: Day 2, compound 2 2.0, compound 3 1.0, PM060184 16 mg/kg; for TV, median (IQR) / Median survival time: iv Q7dx3; for TV, median (IQR): high dose: PM060184 16, Comp. 2 2, Comp. 3 1 mg/kg; for mean time frame with tumor remission: high dose: compound 2 2.0, compound 3 1.0, PM060184 16 mg/kg, last observed day 63; for animals in complete tumor remission status: highest dose: compound 2 2.0, compound 3 1.0 mg/kg; for antitumor activity compared to PM060184-treated group at 16 mg/kg: once treatments were stopped (days 28, 35), 2 at 2 mg/kg, 3 at 1 mg/kg
# Procedure: Female athymic nu/nu mice (Harlan Laboratories Models, S.L. Barcelona, Spain or Envigo, Spain) were utilized for all experiments. Animal were housed in individually ventilated cages Sealsafe® Plus, Techniplast S.P.A.), up to ten per cage on a 12-hour light-dark cycle at 21-23° C. and 40-60% humidity. Mice were allowed free access to irradiated standard rodent diet (Tecklad 2914C) and sterilized water. Animals were acclimated for at least 5 days prior to tumor implantation with a tumor cell suspension.
# HGC27 cells were maintained in vitro at 37° C. with 5% CO2 in Iscove's Modified Dulbecco's Medium (Sigma Aldrich, Co). Culture cells were passage every 3 to 5 days on reaching confluence. Each animal was subcutaneously implanted (on the right flank using 26G needle and a 1 cc syringe) at 4-6 weeks of age with 5×10^6 HGC-27 cells suspended in 0.05 mL of a solution consisting of 50% Matrigel® (Corning Incorporated Life Sciences), 50% medium without serum or antibiotics.
# All treatments were intravenously administered on a weekly basis at their MTD, ¼ MTD and 1/16 MTD (high, medium and low dose).
# Briefly: • 4 to 6 week-old athymic nu/nu female mice were subcutaneously implanted with tumor cells growing in culture. • When tumors reached a certain volume, tumor bearing animals (N=8-10/group) were randomly allocated into treatment groups. • Tumor dimensions and body weights were recorded 2-3 times per week starting from the first day of treatment (Day 0). Treatments producing >20% lethality and/or 20% net body weight loss were considered toxic. Tumor volume was calculated using the equation (a·b^2)/2, where a and b were the longest and shortest diameters, respectively. Animals were euthanized when their tumors reached ca. 2,000 mm^3 and/or severe necrosis was seen. • Median was calculated for tumor volume on each measurement day. • Antitumor effect was assessed comparing tumor volume data from groups following the 1st, 2nd, 3rd study weeks, or more depending on the case, using a two-tailed Mann-Whitney U test. The data are presented as medians and interquartile range (IQR). • Complete tumor regression (CR) was defined when tumor volume<63 mm^3 for 2 or more consecutive measurements. • Treatment tolerability was assessed by monitoring body weight evolution, clinical signs of systemic toxicity as well as evidences of local damage at the injection site.
# PM060184 was provided in the form of freeze-dried vials of lyophilized product. Each vial was reconstituted with water for infusion to a concentration of 2.5 mg/mL.
# Compounds 2 and 3 were provided in the powder form and were solubilized with hydroxy-propyl-β-cyclodextrin (HPβCD), reaching a concentration of 1 mg/ml or 0.2 mg/ml, respectively. Placebo was provided in the form of lyophilised cake containing 1.2 g of hydroxy-propyl-β-cyclodextrin (HPβCD) which was reconstituted with water for infusion.
# In these experiments, compounds 2, 3 and PM060184, as well as placebo, were intravenously administered once per week for 3 consecutive weeks, on Days 0, 7 and 14, whenever it was possible.
# The experiment was carried out as previously explained. When tumors reached ca. 165-175 mm^3, tumor bearing animals (N=8/group) were randomly allocated into the following treatment groups:
# Treatments were initiated on Day 0.
# [4] = high dose: PM060184 16.0, Comp. 2 2.0, Comp. 3 1.0 mg/kg, ud = group not reached mortality
# [5] = low dose: PM060184 1.0, Comp. 2 0.125, Comp. 3 0.0625 mg/kg
# [6] = medium dose: PM060184 4.0, Comp. 2 0.5, Comp. 3 0.25 mg/kg
SMILES,"GI50 ([1]; PSN1, 72 h) [M]","GI50 ([2]; A549, 72 h) [M]",mean body weight reduction [3],"TV, median (IQR) ([3]; Day 7)","TV, median (IQR) ([3]; Day 14)","TV, median (IQR) ([3]; Day 21)","TV, median (IQR) ([3]; Day 28)","TV, median (IQR) ([3]; Day 35)","Median survival time [3, 4]",mean time frame with tumor remission [3],animals in complete tumor remission status [3] [%],"Median survival time [3, 5] [days]","Median survival time [3, 6] [days]",antitumor activity compared to PM060184-treated group at 16 mg/kg [3],"GI50 ([1]; PSN1, 72 hours treatment, SRB) [M]","GI50 ([2]; A549, 72 hours treatment, SRB) [M]",animals that reached a complete remission (number out of eight) ([3]; PM060184 16 mg/kg (high-dose))
COC1=CC[C@@H]([C@@H](C)/C=C(C)/C=C\C=C/C(=O)N[C@H](C(=O)N/C=C\C[C@H](CC=C(C)C)OC(N)=O)C(C)(C)C)OC1=O [Compound 3],1.43e-10,5.98e-11,ca. −13.1%,366.0 (300.1-479.8) mm3,177.1 (142.3-256.0) mm3,75.0 (65.6-84.4) mm3,66.7 (38.2-73.7) mm3,27.3 (21.4-41.4) mm3,ud,higher than 31.5 days,100,12,30,"big difference, in terms of antitumor activity, statistically significant",–,–,–
COC1=CC[C@@H]([C@@H](C)/C=C(C)/C=C\C=C/C(=O)N[C@H](C(=O)N/C=C\C[C@H](C/C=C(\C)F)OC(N)=O)C(C)(C)C)OC1=O [Compound 2],2.27e-11,4.55e-11,ca. −13.1%,313.6 (237.3-482.4) mm3,143.2 (96.1-223.6) mm3,75.0 (51.6-75.0) mm3,42.5 (37.0-63.9) mm3,32.9 (20.4-36.6) mm3,ud,higher than 29.1 days,100,14,38.5,"big difference, in terms of antitumor activity, statistically significant",–,–,–
"C/C=C\C[C@@H](C/C=C\NC(=O)[C@@H](NC(=O)\C=C/C=C\C(C)=C\[C@H](C)[C@@H]1CC=C(OC)C(=O)O1)C(C)(C)C)OC(N)=O [PM060184, reference compound]",–,–,ca. −4.1%,250.7 (212.8-433.0) mm3,124.8 (102.8-213.2) mm3,88.5 (68.2-118.3) mm3,114.4 (63.7-155.1) mm3,267.3 (100.4-414.0) mm3,56 days,18 days,–,15,27,–,1.87e-10,1.71e-10,three out of eight
